Source: patent US4613695A, “N-nitroso compounds and compositions containing such compounds” (Aktiebolaget Leo, priority 1982, dated 1986)
Read-outs that look alike come from different tables or passages of the source.

Tests used:
[1] = system: Lymphatic leukemia L1210; test: Lymphatic leukemia L1210 survival test (survival time increase, long term survival, cure potential); format: in vivo, Female BDF1 mice; conditions: for minimal effective dose: Mus musculus, L1210, po; for T.I.s (long term survival; max.effect.dose/min.effect.dose): long term survival T·100/To >20%; for T.I.s = max.effect.dose/min.effect.dose: survival time increase, t·100/c ≥125%; for Dose or dose range for cure: ≥90% long term survivors on day 60
Procedure: The experimental design and interpretation of the results are in accordance with the standards set by the CCNSC (see reference (16)) and by the DR&D (see reference (17)).
Experimental animals: Female BDF1 mice
Tumour implants: 10^5 tumour cells implanted intraperitoneally (i. p.)
Therapy: The compounds were administered p. o. once on the day following the implantation.
Termination: The animals were killed on the 60th day after the implantation. Living animals on the 60th day are termed long term survivors.
(a) Evaluation of therapeutic dose range for survival time increase: Survival times at various dose levels are determined, and the survival time of the test animals (t) is expressed as the percentage of that of the control animals (c):
The maximum effective dose and the minimum effective dose required to achieve t·100/c≥125% are determined, and a therapeutic index as defined below is calculated:
T. I.s =max.effect.dose/min.effect.dose.
(b) Evaluation of therapeutic dose range for long term survival: Long time survival is determined at various dose levels and is expressed as surviving test animals on day 60 (T) as the percentage of that of the total number of test animals (To):
The maximum effective dose and the minimum effective dose to achieve long term survival T·100/To >20% are determined and a therapeutic index, T. I.1 s is calculated:
T. I.1s =max.effect.dose/min.effect.dose.
(c) Evaluation of cure potential: The normal survival time for test animals receiving no therapeutic treatment is 9-11 days. Surviving test animals on the 60th day after implantation showing no sign of tumour presence are regarded as cured animals. Long term survival is determined as under (b) above, and the effective dose or dose range to achieve a long term survival T·100/To ≥90% is determined as an evaluation of the cure potential.

[2] = system: Walker carcinosarcoma 256; test: Walker carcinosarcoma 256 tumour growth inhibition (single p.o. dose); format: in vivo, Female Sprague Dawley rats; conditions: for ED50: Rattus norvegicus; for activity in the foregoing test (Walker carcinosarcoma 256): dose of 8 mg/kg, preliminary experiments
Excerpt: (§1) A therapeutic index is an indication of the therapeutic usefulness of a compound, and such an index may be defined in various ways. One type of therapeutic index commonly used is the ratio LD50/ED50, wherein LD50 is the dose that causes a 50 percent lethality, and ED50 is the dose that causes a 50 percent reduction of tumour size. Another type of therapeutic index, useful in evaluation of increasing survival time, is the ratio between maximum and minimum effective dose. Both these types of therapeutic indexes are used and given in the experimental results below.
(§2) The manner of administration of the compounds is by the oral (p. o.) route in each case.
(§3) Experimental animals: Female Sprague Dawley rats
(§4) Tumour implants: Tumour pieces with 2-3 mm diameter, implanted subcutaneously
(§5) Therapy: The compound is administered p. o. once on the day after the implantation
Termination: The animals are killed on the 9th day after implantation
(§6) Evaluation: Weight of tumour is determined in test animals and compared with those of control animals. For each compound the LD50 and ED50 dose (as defined above) are determined. The therapeutic index, T. I., (LD50/ED50) is calculated.

[3] = in vivo; conditions: rat, po
Excerpt: as §1, §2, §3, §4, §5, §6

[4] = 1440 h, >20% long term survivors on day 60, p.o. once, read-out: Minimum effective dose (long term survival)
[5] = median survival time percent of control ≥ 125%, p.o. once, read-out: Minimum effective dose (survival time increase)
[6] = median survival time percent of control ≥ 125%, p.o. once
[7] = po, dose that causes a 50 percent reduction of tumour size, p.o. once, read-out: ED50
[8] = therapeutic index LD50/ED50, p.o.
[9] = >20% long term survivors on day 60, p.o. once

Row | Compound | minimal effective dose [1, 4] [mg/kg] | minimal effective dose [1, 5] [mg/kg] | T.I.s (long term survival; max.effect.dose/min.effect.dose) [1] | Maximum effective dose (survival time increase) [1, 6] [mg/kg] | T.I.s = max.effect.dose/min.effect.dose [1] | Dose or dose range for cure ([1]; p.o. once) [mg/kg] | ED50 [2, 7] [mg/kg] | T.I. LD50/ED50 [2, 8] | LD50 [3] [mg/kg] | T.I. LD50/ED50 ([2]; rat, in vivo, po) | activity in the foregoing test (Walker carcinosarcoma 256) ([2]; p.o.) | median survival time percent of control ([1]; dose of 125 mg/kg, p.o., called significant activity) [%] | ED50 ([2]; po) [mg/kg] | Maximum effective dose (long term survival) [1, 9] | Minimum effective dose (long term survival) [1, 9]
1 | CN(C)S(=O)(=O)CCNC(=O)N(CCCl)N=O [1:1, 1-(2-chloroethyl)-3-/2-(dimethylaminosulfonyl)ethyl/-1-nitrosourea] | 31 | 8 | 2 | 63 | 8 | 31 to 63 | 0.25 | 200 | 50 | – | – | – | – | – | –
2 | CCN(CC)S(=O)(=O)CCNC(=O)N(CCCl)N=O [1:2, 1-(2-chloroethyl)-3-(2-/diethylaminosulfonyl/ethyl)-1-nitrosourea] | 63 | 16 | 2 | 125 | 8 | – | 0.4 | 150 | 60 | – | – | – | – | – | –
3 | NS(=O)(=O)CCNC(=O)N(CCCl)N=O [1:3, 3-(2-/aminosulfonyl/ethyl)-1-(2-chloroethyl)-1-nitrosourea] | 16 | – | 2 | – | – | – | 0.2 | 200 | 40 | – | – | – | – | – | –
4 | O=NN(CCCl)C(=O)NCCS(=O)(=O)N1CCCCC1 [1:4, 1-(2-chloroethyl)-1-nitroso-3-(2-/1-piperidinosulfonyl/ethyl)-urea] | 31 | 8 | 4 | 125 | 16 | 125 | 1 | 125 | 125 | – | – | – | – | – | –
5 | CNS(=O)(=O)CCNC(=O)N(CCCl)N=O [1:5, 1-(2-chloroethyl)-3-(2-/methylaminosulfonyl/ethyl)-1-nitrosourea] | – | 8 | – | 63 | 8 | 31 | 0.25 | 160 | 40 | – | – | – | – | – | –
6 | CCCN(CCC)S(=O)(=O)CCNC(=O)N(CCCl)N=O [1:6, 1-(2-chloroethyl)-3-(2-/dipropylaminosulfonyl/ethyl)-1-nitrosourea] | – | 31 | – | 250 | 8 | 125 | 2 | 125 | 250 | – | – | – | – | – | –
7 | O=NN(CCCl)C(=O)NCCS(=O)(=O)NCc1ccccc1 [1:7, 3-(2-/benzylaminosulfonyl/ethyl)-1-(2-chloroethyl)-1-nitrosourea] | 125 | – | 2 | – | – | – | 2 | 125 | 250 | – | – | – | – | – | –
8 | O=NN(CCCl)C(=O)NCCS(=O)(=O)NCCO [1:14, 1-(2-chloroethyl)-3-(2-/2-hydroxyethylaminosulfonyl/ethyl)-1-nitrosourea] | 31 | 16 | 4 | 125 | 8 | 63 | 0.6 | 150 | 90 | – | – | – | – | – | –
9 | CN(CCO)S(=O)(=O)CCNC(=O)N(CCCl)N=O [1:15, 1-(2-chloroethyl)-3-(2-/N-2-hydroxyethyl-N-methyl-aminosulfonyl/ethyl)-1-nitrosourea] | 31 | 16 | 4 | 125 | 8 | 63 | 0.6 | – | 90 | 150 | – | – | – | – | –
10 | CN(C)S(=O)(=O)CCCCCNC(=O)N(CCCl)N=O [1:19, 1-(2-chloroethyl)-3-(5-/dimethylaminosulfonyl/pentyl)-1-nitrosourea] | 63 | – | 2 | – | – | 125 | 1 | 250 | 250 | – | – | – | – | – | –
11 | CN(C)S(=O)(=O)CCCCNC(=O)N(CCCl)N=O [1:24, 1-(2-chloroethyl)-3-(4-/dimethylaminosulfonyl/butyl)-1-nitrosourea] | 63 | 31 | 4 | 250 | 8 | 125 | 2 | – | 250 | 125 | – | – | – | – | –
12 | CN(C1CCCCC1)S(=O)(=O)CCNC(=O)N(CCCl)N=O [1:28, 1-(2-chloroethyl)-3-(2-/N-cyclohexyl-N-methylaminosulfonyl/ethyl)-1-nitrosourea] | 125 | 31 | 2 | 250 | 8 | 125 | 2.5 | > 100 | > 250 | – | – | – | – | – | –
13 | COCCN(CCS(=O)(=O)N(C)C)C(=O)N(CCCl)N=O [1:48, 1-(2-chloroethyl)-3-(2-methoxyethyl)-3-/2-(dimethylaminosulfonyl)ethyl/-1-nitrosourea] | – | – | – | – | – | – | – | – | – | – | significant activity | – | – | – | –
14 | CCN(C)S(=O)(=O)CCNC(=O)N(CCCl)N=O [1:52, 1-(2-chloroethyl)-3-(2-/N-ethyl-N-methylaminosulfonyl/ethyl)-1-nitrosourea] | 31 | – | 2 | – | – | – | – | – | – | – | significant activity | – | – | – | –
15 | CCCN(CC)S(=O)(=O)CCNC(=O)N(CCCl)N=O [1:53, 1-(2-chloroethyl)-3-(2-/N-ethyl-N-propylaminosulfonyl/ethyl)-1-nitrosourea] | 125 | 31 | 2 | 500 | 16 | 125 to 150 | 1.7 | – | – | – | – | – | – | – | –
16 | CCN(CCS(=O)(=O)N(C)C)C(=O)N(CCCl)N=O [1:54, 1-(2-chloroethyl)-3-(2-/dimethylaminosulfonyl/ethyl)-3-ethyl-1-nitrosourea] | – | – | – | – | – | – | – | – | – | – | significant activity | ≥ 125 | – | – | –
17 | O=NN(CCCl)C(=O)NC1CCCCC1 [CCNU, 1-(2-chloroethyl)-3-cyclohexyl-1-nitrosourea, reference compound] | – | – | – | – | – | – | 1 | 90 | 90 | – | – | – | – | – | –
18 | O=P1(N(CCCl)CCCl)NCCCO1 (stereo not drawn) [Cyclophosphamide, reference compound] | – | – | – | – | – | – | – | 30 | 180 | – | – | – | 6 | – | –
19 | CC1CCC(NC(=O)N(CCCl)N=O)CC1 (stereo not drawn) [Methyl-CCNU, 1-(2-chloroethyl)-3-(4-methyl-cyclohexyl)-1-nitrosourea, reference compound] | – | 8 | none | 31 | 4 | – | – | – | – | – | – | – | – | none | none
